Non-standard residues stand in square brackets, D forms with d. Residues, ends and D or L forms follow the SMILES beside them. *: point of attachment. Pro(4R-Me) = C[C@H]1CN[C@H](C(=O)O)C1; Oleoyl = CCCCCCCC/C=C\CCCCCCCC(=O)*; hSer = N[C@@H](CCO)C(=O)O
How the values were obtained:
[1] = Cytotoxicity against African green monkey Vero cells; type: cell-based; details: chlorocebus sabaeus
Zika virus [2] = assay: Antiviral activity against Zika virus infected in African green monkey Vero cells after 72 hrs by DAPI-staining based assay; type: functional, organism-based
Zika virus [3] = assay: Antiviral activity against Zika virus H/PAN/2016/BEI-259634 infected in human NSC by CellTiter-Glo assay; type: functional, organism-based
[4] = Cytotoxicity against human NSC; type: cell-based; details: NSC cells
[5] = Activation of AMPK in African green monkey Vero cells infected with Zika virus PA259459 assessed as antiviral activity measured 24 hrs post infection by plaque assay; type: cell-based; details: Chlorocebus aethiops
[6] = Inhibition of Protein E in Zika virus infected in African green monkey Vero cells assessed as antiviral activity preincubated for 1 hr followed by viral infection and measured 24 hr post infection by plaque assay; type: cell-based
Zika virus [7] = assay: Antiviral activity against Zika virus infected in human A549 cells; type: functional, organism-based
[8] = Cytotoxicity against human A549 cells; type: cell-based
Zika virus [9] = assay: Antiviral activity against Zika virus infected in African green monkey Vero E6 cells assessed as reduction in virus infectivity at 160 uM preincubated with virus for 1 hr followed by cell infection and measured after 96 hrs by crystal violet staining based assay relative to control; type: functional; details: Vero C1008
Zika virus [10] = assay: Antiviral activity against Zika virus infected in African green monkey Vero E6 cells assessed as reduction in virus infectivity preincubated with virus for 1 hr followed by cell infection and measured after 96 hrs by crystal violet staining based assay; type: functional, organism-based; details: Vero C1008
[11] = Cytotoxicity against African green monkey Vero E6 cells measured up to 24 to 72 hrs by MTT assay; type: cell-based, Vero C1008; details: chlorocebus sabaeus
Zika virus [12] = assay: Antiviral activity against Zika virus MR 766 infected in African green monkey Vero cells measured 5 days post infection by CellTiter Blue assay; type: functional, organism-based; details: MR 766, Vero, 120 h
Zika virus [13] = assay: Antiviral activity against Zika virus MR 766 infected in HBMEC measured 5 days post infection by CellTiter Blue assay; type: functional, organism-based; details: MR 766, 120 h
Zika virus [14] = assay: Antiviral activity against Zika virus MR 766 infected in human NSC measured 5 days post infection by CellTiter Blue assay; type: functional, organism-based; details: MR 766, 120 h
[15] = Cytotoxicity against African green monkey Vero cells after 5 days by CellTiter Blue assay; type: cell-based; details: chlorocebus sabaeus
[16] = Cytotoxicity against HBMEC after 5 days by CellTiter Blue assay; details: human
[17] = Cytotoxicity against human NSC after 5 days by CellTiter Blue assay; type: cell-based; details: NSC cells
Zika virus [18] = assay: Antiviral activity against Zika virus infected in African green monkey Vero E6 cells assessed as reduction in virus infectivity at 40 uM preincubated with virus for 1 hr followed by cell infection and measured after 96 hrs by crystal violet staining based assay relative to control; type: functional; details: Vero C1008
[19] = (§1) Inhibition of IMPDH in Zika virus MR766 infected in human HuH7 cells assessed as antiviral activity by measuring reduction in viral replication preincubated for 12 hrs followed by viral infection and measured day 2 post infection by qRT-PCR method; type: cell-based; details: MR766, Huh-7
Zika virus [20] = assay: as §1; type: cell-based
[21] = Cytotoxicity against human HuH7 cells by MTS assay; type: cell-based; details: Huh-7 cells
[22] = Inhibition of DHFR in Zika virus Mex2-81 infected in HBMEC assessed as antiviral activity incubated for 24 hrs
[23] = Cytotoxicity against HBMEC after 24 hrs by resazurin-dye based Alamar blue assay; details: human
[24] = Cytotoxicity against human JEG3 cells by alamarBlue assay; type: cell-based; details: JEG-3 cells
Zika virus [25] = assay: Antiviral activity against Zika virus PRVABC59 Puerto Rico infected in human JEG3 cells after 24 hrs by plaque assay; type: functional, organism-based; details: JEG-3, 24 h

With O=C(c1cc(Cl)cc(Cl)c1O)c1[nH]c(F)c(Br)c1Br the CC50 [1] was greater than 100 µM, the EC50 (Zika virus [2]) was 5.95 µM and the EC50 (Zika virus [3]) was 8.56 µM. It also gave a CC50 [4] greater than 100 µM.

In the case of O=C(O)c1c[nH]c2cc(Cl)c(-c3ccc(C4(O)CCC4)cc3)cc12, the EC50 [5] is reported as 2.6 µM.

With CC[C@H](C)[C@H](NC(=O)[C@H](CO)NC(=O)CNC(=O)[C@H](Cc1ccccc1)NC(=O)[C@H](CC(=O)O)NC(=O)[C@H](Cc1c[nH]c2ccccc12)NC(=O)[C@H](C)N)C(=O)NCC(=O)NCC(=O)N[C@H](C(=O)N[C@@H](Cc1ccccc1)C(=O)N[C@@H](CC(N)=O)C(=O)N[C@@H](CO)C(=O)N[C@H](C(=O)NCC(=O)N[C@@H](CCCCN)C(=O)N[C@@H](C)C(=O)N[C@H](C(=O)N[C@@H](Cc1cnc[nH]1)C(=O)N[C@@H](CCC(N)=O)C(=O)N[C@H](C(=O)N[C@@H](Cc1ccccc1)C(=O)O)C(C)C)C(C)C)[C@@H](C)CC)C(C)C the CC50 [1] was greater than 10 µM and the EC50 [6] was 3.27 µM.

CCCCCCCC/C=C\CCCCCCCC(=O)N[C@H](C(=O)N1C[C@H](C)C[C@H]1C(=O)N[C@H](C(=O)N[C@@H](CCO)C(=O)N[C@@H](C)C=O)C(C)C)[C@@H](C)O (Oleoyl-T[Pro(4R-Me)]V[hSer]A-aldehyde) showed an EC50 (Zika virus [7]) of 0.15 µM and a CC50 [8] of 1.65 µM.

With COc1ccc2cc3[n+](cc2c1OC)CCc1cc2c(cc1-3)OCO2 [BERBERINE] the inhibition at 160 µM (Zika virus [9]) was 77.6%, the IC50 (Zika virus [10]) was 39.1 µM and the CC50 [11] was 221 µM.

Compound CCN(CC)CCCC(C)Nc1ccnc2cc(Cl)ccc12 (stereo not drawn) [CHLOROQUINE] has an EC50 (Zika virus [12]) of 9.82 to 14.2 µM, an EC50 (Zika virus [13]) of 9.82 to 14.2 µM and an EC50 (Zika virus [14]) of 9.82 to 14.2 µM. For the same compound, the CC50 at 120 h [15] was 95 to 135 µM, the CC50 at 120 h [16] was 95 to 135 µM and the CC50 at 120 h [17] was 95 to 135 µM.

Work on Cc1cc(O)c2c(c1)C(=O)c1cc(O)cc(O)c1C2=O [EMODIN] yielded an inhibition at 40 µM (Zika virus [18]) of 88.3%, an IC50 (Zika virus [10]) of 3.2 µM and a CC50 [11] of 68.6 µM.

In the case of COc1cc(NC(=O)Nc2cccc(CNC(=O)O[C@H]3CCOC3)c2)ccc1-c1cnco1 [MERIMEPODIB], the EC50 [19] is reported as 0.6 µM, the EC90 (Zika virus [20]) is reported as 1 µM and the CC50 [21] is reported as greater than 10 µM.

With CN(Cc1cnc2nc(N)nc(N)c2n1)c1ccc(C(=O)N[C@@H](CCC(=O)O)C(=O)O)cc1 [METHOTREXATE] the EC50 [22] was 0.28 µM and the CC50 at 24 h [23] was greater than 10 µM.

In the case of O=C1C[C@@H](c2ccccc2)Oc2cc(O)cc(O)c21 [PINOCEMBRIN], the CC50 [24] is reported as 251 µM and the EC50 (Zika virus [25]) is reported as 17.4 µM.

From ChEMBL document CHEMBL4354808, “Drugs for the Treatment of Zika Virus Infection” (J Med Chem, 2020)
